Reference: paper PMC12749748, “Chemically-induced degradation of the endoplasmic-reticulum stress sensor IRE1 by a VHL-recruiting chimera” (Nature Communications, 2025)
Where “and” joins values, the source holds several entries; their conditions need not be identical. Equal values may be shown once.

Columns and labels:
IRE1:VHL = IRE1:VHL (Homo sapiens, UniProt O75460+P40337); assay: co-IP of endogenous VHL with endogenous IRE1 from AMO1 cells; format: cell-based; design: co-IP of endogenous VHL with endogenous IRE1 from AMO1 cells; endogenous in cells; host or cells: AMO1; conditions: titration of G6374
Procedure: Cells were lysed in buffer containing 20 mM HEPES 7.2, 150 mM NaCl, and 1% Triton X-100, supplemented with fresh protease and phosphatase inhibitors (Invitrogen, #78440), cleared by centrifugation at 12,000 × g for 10 min, and analyzed by BCA protein assay (Thermo Fisher Scientific, #23227). Equal protein amounts were loaded, separated by SDS-PAGE, electrotransferred to nitrocellulose membranes using the iBLOT2 system (Invitrogen), and blocked in 5% nonfat milk solution for 60 min. Membranes were probed with primary antibodies at 1:1000 dilution in 5% milk at 4 °C overnight. Signal was detected using appropriate horseradish peroxidase (HRP)-conjugated secondary antibodies at 1:10,000 in 5% milk at room temperature for 1–2 h. Bands were visualized by the Azure 600 western blot imaging system (Azure Biosystems). For in vitro ubiquitination assays performed with Me-Ub, bands were visualized by the Odyssey CLx Imager (LI‑COR) after incubating the blots with the IRDye 800CW (LI-COR) secondary antibodies at 1:10,000 in Intercept Blocking Buffer (LI-COR) at room temperature for 1–2 h.
IRE1.LD antibodies were conjugated to agarose beads using the AminoLink® Plus Immobilization Kit (Thermo Fisher, #44894). […]

VCB [1] = assay: Fluorescence polarization displacement of FAM-labeled HIF-1α peptide from VCB; format: binding; conditions: ratio between IC50 of VCB: G6374 and VCB: (G6374 + IRE1)
Procedure: (§1) Assays were performed in duplicates on ProxiPlate-384 F Plus (Revvity, #6008260) with a total well volume of 16 µL. Each well contained 50 nM of FAM-labeled HIF-1α peptide (FAM-DEALA-Hyp-YIPD, biotechne, #7287), 500 nM of VCB protein, and a titration of G6374 (2-fold serial dilutions from […] to 625 nM, then 1.3-fold serial dilutions to 284.5 nM, followed by 2-fold serial dilutions to 8.9 nM) or IRE1.KR:G6374 (constant concentration of 2.4 µM IRE1.KR and the same serial dilution of G6374 as mentioned above) in 50 mM HEPES pH 7.2, 100 mM NaCl, 1 mM TCEP, and 0.002% Tween 20 with a final concentration of DMSO of 1.5%. The plate was incubated at room temperature in the dark, first for 5 min on a shaker at 300 rpm, then for another 30 min on the bench. FP was measured using the EnVision Multimode Plate Reader (PerkinElmer) with fluorescence excitation and emission wavelengths of 480 nm and 535 nm. The percentage of HIF-1α displacement was calculated by normalization to maximum fluorescence anisotropy (or 0% displacement of the HIF-1α peptide) and minimum fluorescence anisotropy (or 100% displacement of the HIF-1α peptide), which were determined by “top” and “bottom” values of the curve fit of fluorescence anisotropy against G6374 concentration in GraphPad Prism 10 (GraphPad Software, Inc.). The IC50 values were then determined by curve fitting with the percentage of HIF-1α displacement against G6374 concentration in GraphPad Prism 10 (GraphPad Software, Inc.).

VCB [2] = biological target: VCB (Homo sapiens, UniProt P40337); assay: as above; format: binding
Procedure: as §1

Chain of VCB (Homo sapiens, UniProt P40337) (Q15370 whole entry): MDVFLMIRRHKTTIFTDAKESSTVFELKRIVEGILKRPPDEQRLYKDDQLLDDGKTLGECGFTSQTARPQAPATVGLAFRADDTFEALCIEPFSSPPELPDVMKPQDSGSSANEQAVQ
Chain of VCB (Homo sapiens, UniProt P40337) (Q15369 17-112, further chain): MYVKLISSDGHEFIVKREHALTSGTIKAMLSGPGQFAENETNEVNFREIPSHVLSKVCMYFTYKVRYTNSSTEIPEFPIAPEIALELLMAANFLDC
Chain of VCB (Homo sapiens, UniProt P40337) (P40337 55-213): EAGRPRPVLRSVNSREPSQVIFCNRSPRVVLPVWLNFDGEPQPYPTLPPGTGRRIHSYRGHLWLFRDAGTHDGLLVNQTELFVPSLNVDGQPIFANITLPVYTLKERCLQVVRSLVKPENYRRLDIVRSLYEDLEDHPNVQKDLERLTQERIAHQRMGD
Chain of IRE1:VHL (O75460 19-977): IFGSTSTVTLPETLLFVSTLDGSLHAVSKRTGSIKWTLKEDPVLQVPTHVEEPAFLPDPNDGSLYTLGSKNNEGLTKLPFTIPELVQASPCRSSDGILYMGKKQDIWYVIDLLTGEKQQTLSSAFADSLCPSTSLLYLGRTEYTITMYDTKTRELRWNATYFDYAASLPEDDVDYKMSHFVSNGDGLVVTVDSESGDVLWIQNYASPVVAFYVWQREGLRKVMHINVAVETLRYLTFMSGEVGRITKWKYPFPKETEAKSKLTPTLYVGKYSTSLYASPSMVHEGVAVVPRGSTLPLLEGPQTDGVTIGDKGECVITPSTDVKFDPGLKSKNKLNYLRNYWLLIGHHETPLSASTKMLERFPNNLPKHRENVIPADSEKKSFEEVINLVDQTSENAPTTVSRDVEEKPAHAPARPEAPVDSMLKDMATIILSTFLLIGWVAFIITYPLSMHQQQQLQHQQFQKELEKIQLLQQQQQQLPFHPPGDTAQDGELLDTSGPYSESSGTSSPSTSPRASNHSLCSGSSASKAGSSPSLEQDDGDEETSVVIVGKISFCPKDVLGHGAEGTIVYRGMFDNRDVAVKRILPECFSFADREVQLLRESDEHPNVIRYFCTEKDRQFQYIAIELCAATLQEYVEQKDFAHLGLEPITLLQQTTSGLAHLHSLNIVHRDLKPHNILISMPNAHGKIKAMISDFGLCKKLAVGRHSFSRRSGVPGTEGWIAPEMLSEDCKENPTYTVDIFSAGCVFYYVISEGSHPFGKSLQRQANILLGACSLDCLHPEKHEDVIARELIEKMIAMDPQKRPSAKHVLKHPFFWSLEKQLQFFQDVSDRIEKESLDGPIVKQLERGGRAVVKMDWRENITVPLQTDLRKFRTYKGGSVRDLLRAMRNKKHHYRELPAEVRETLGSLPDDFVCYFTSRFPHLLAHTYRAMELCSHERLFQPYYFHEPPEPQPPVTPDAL
Chain of IRE1:VHL (P40337 whole entry): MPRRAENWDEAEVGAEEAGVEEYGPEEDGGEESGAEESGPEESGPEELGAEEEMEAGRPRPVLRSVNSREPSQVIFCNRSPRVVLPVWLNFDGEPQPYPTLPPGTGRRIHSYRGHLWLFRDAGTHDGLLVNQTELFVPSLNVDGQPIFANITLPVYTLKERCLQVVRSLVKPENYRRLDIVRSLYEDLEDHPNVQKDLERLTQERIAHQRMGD
Chain of IRE1:VHL (Q15369 whole entry partner): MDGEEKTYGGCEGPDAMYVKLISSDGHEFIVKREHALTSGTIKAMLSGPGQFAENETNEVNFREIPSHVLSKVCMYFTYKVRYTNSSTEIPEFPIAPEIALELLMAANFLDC
Chain of IRE1:VHL (Q15370 whole entry partner): as the sequence (Q15370 whole entry) above
Chain of IRE1:VHL (Q13617 whole entry partner): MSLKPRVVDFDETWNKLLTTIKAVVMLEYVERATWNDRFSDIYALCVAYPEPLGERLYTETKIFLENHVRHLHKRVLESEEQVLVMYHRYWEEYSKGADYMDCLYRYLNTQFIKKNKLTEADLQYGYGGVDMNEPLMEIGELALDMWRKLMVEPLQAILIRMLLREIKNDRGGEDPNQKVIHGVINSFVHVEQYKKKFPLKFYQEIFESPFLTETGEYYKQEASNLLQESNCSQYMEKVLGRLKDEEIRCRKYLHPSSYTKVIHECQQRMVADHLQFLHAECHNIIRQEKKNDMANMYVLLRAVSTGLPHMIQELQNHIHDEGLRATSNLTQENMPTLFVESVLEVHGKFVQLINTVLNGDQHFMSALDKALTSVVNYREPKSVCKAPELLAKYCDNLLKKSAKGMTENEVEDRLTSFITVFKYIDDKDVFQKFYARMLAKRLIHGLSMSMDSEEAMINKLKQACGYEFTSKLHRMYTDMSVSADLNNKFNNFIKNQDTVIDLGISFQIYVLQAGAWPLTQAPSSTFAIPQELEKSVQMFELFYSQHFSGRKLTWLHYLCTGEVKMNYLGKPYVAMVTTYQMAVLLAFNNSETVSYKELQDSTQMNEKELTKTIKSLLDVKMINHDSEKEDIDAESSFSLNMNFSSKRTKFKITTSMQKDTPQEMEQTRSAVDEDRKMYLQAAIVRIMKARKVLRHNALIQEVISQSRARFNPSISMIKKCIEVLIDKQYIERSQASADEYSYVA
Chain of IRE1:VHL (P62877 whole entry partner): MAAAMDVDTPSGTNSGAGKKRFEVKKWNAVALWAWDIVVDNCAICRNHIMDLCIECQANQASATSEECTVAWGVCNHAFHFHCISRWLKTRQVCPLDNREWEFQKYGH

Cc1ncsc1-c1ccc(CNC(=O)[C@@H]2C[C@@H](O)CN2C(=O)[C@@H](NC(=O)CCCCN2CCN([C@H]3CC[C@H](Nc4ncc5ccc(=O)n(C(C)C)c5n4)CC3)CC2)C(C)(C)C)cc1 [G6374]
induced IRE1:VHL interaction (co-IP) (IRE1:VHL): induced a much stronger interaction between the two proteins
Cooperativity alpha (VCB [1]): 5 and 5 ± 0.15
IC50 (VCB [2]; G6374 alone, absence of IRE1, N=3, mean ± SEM): 2.48 ± 0.112 µM
IC50 (VCB [2]; G6374 in the presence of saturating IRE1 (2.4 µM), N=3, mean ± SEM): 0.492 ± 0.021 µM
